Results on 28 molecules are retold here after ChEMBL document CHEMBL4043259, “From UTP to AR-C118925, the discovery of a potent non nucleotide antagonist of the P2Y2 receptor” (Bioorg Med Chem Lett, 2017).

SMILES strings stand for the structures.

The clearance is the volume of plasma or blood freed of the substance per unit of time. A lower clearance goes with inefficient removal. As usually defined, the half-life is the time in which the quantity being followed falls by half. A higher half-life goes with slow decline. In general, bioavailability refers to the share of a dose that reaches the circulation, judged against a reference dose that is usually intravenous. Read a high bioavailability as much systemic uptake.

The first series deals with P2Y purinoceptor 2 (Homo sapiens, UniProt P41231). The series can be described thus: Antagonist activity at human P2Y2R expressed in human Jurkat cells assessed as inhibition of UTP-activated intracellular calcium mobilization by fluo-3AM dye based fluorescence assay. The series is classed as functional, cell-based. The following applies: read-out: pA2 (converted).
Chain of P2Y purinoceptor 2 (P41231 whole entry): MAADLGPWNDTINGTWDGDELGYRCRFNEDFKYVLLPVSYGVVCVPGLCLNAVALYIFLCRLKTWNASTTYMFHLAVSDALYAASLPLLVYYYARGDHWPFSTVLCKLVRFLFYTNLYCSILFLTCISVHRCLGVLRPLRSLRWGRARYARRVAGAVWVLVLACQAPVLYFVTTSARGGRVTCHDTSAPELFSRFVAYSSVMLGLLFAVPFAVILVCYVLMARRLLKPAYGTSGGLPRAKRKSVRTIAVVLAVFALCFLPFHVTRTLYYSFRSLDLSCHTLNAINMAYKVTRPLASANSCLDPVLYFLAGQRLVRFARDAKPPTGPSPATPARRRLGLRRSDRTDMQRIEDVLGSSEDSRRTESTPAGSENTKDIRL
Take `O=C(O)c1csc(Cn2cc(C3c4ccccc4C=Cc4ccccc43)c(=S)[nH]c2=O)n1`: the Kb was 2000 nM.
On the same count and under the same terms, the value for `O=C(O)Cc1cccc(Cn2cc(C3c4ccccc4C=Cc4ccccc43)c(=S)[nH]c2=O)c1` was 2000 nM.
On to `O=c1[nH]c(=S)c(C(c2ccccc2)c2ccccc2)cn1[C@@H]1O[C@H](COP(=O)(O)OP(=O)(O)C(Cl)(Cl)P(=O)(O)O)[C@@H](O)[C@H]1O`, for which the Kb was 1000 nM.
Still for that read-out and setting: the value for `O=C(O)c1cc(Cn2cc(C3c4ccccc4C=Cc4ccccc43)c(=S)[nH]c2=O)cs1` was 2510 nM.
The same measure, in the same setting: for `O=C(O)c1coc(Cn2cc(C3c4ccccc4C=Cc4ccccc43)c(=S)[nH]c2=O)n1` the value was 1580 nM; for `O=C(O)c1csc(Cn2cc(C3c4ccccc4C=Cc4ccccc43)c(=O)[nH]c2=O)n1`, 39800 nM; for `Cc1ccc2c(c1)C=Cc1cc(C)ccc1C2c1cn(Cc2ccc(C(=O)Nc3nc(CC(=O)O)cs3)o2)c(=O)[nH]c1=S`, 31.6 nM.
Still for that read-out and setting: the value for `O=c1[nH]c(=S)c(C2c3ccccc3CCc3ccccc32)cn1[C@@H]1O[C@H](COP(=O)(O)OP(=O)(O)C(Cl)(Cl)P(=O)(O)O)[C@@H](O)[C@H]1O` was 10 nM; that for `Cc1ccc2c(c1)C=Cc1cc(C)ccc1C2c1cn(Cc2nc(C(=O)N[C@@H](CC(=O)O)C(=O)O)cs2)c(=O)[nH]c1=S` was 39.8 nM.
Turning to `COc1ccc(C(c2ccc(OC)cc2)c2cn([C@@H]3O[C@H](COP(=O)(O)OP(=O)(O)C(Cl)(Cl)P(=O)(O)O)[C@@H](O)[C@H]3O)c(=O)[nH]c2=S)cc1`, the Kb is 79.4 nM.
For `O=C(O)c1cnc(Cn2cc(C3c4ccccc4C=Cc4ccccc43)c(=S)[nH]c2=O)s1`, the Kb is 6310 nM.
Consider `O=C(O)COc1cccc(Cn2cc(C3c4ccccc4C=Cc4ccccc43)c(=S)[nH]c2=O)c1`, for which the Kb is 2510 nM.
`O=c1[nH]c(=S)c(C2c3ccccc3C=Cc3ccccc32)cn1[C@@H]1O[C@H](COP(=O)(O)OP(=O)(O)C(Cl)(Cl)P(=O)(O)O)[C@@H](O)[C@H]1O`: the Kb was 3.16 nM.
Still for that read-out and setting: the value for `O=c1[nH]c(=S)c(C(c2ccc(Cl)cc2)c2ccc(Cl)cc2)cn1[C@@H]1O[C@H](COP(=O)(O)OP(=O)(O)C(Cl)(Cl)P(=O)(O)O)[C@@H](O)[C@H]1O` was 12.6 nM; that for `O=C(O)c1ccc(Cn2cc(C3c4ccc(Cl)cc4C=Cc4cc(Cl)ccc43)c(=S)[nH]c2=O)o1` was 200 nM; that for `O=c1[nH]c(=S)c(C2c3ccccc3-c3ccccc32)cn1[C@@H]1O[C@H](COP(=O)(O)OP(=O)(O)C(Cl)(Cl)P(=O)(O)O)[C@@H](O)[C@H]1O` was 63.1 nM.
Still for that read-out and setting: for `O=C(O)c1cccc(Cn2cc(C3c4ccccc4C=Cc4ccccc43)c(=S)[nH]c2=O)c1` the value was 3980 nM; for `O=c1[nH]c(=S)c(C2c3ccccc3Oc3ccccc32)cn1[C@@H]1O[C@H](COP(=O)(O)OP(=O)(O)C(Cl)(Cl)P(=O)(O)O)[C@@H](O)[C@H]1O`, 50.1 nM.
As to `Cc1ccc2c(c1)C=Cc1cc(C)ccc1C2c1cn(Cc2nc(C(=O)O)cs2)c(=O)[nH]c1=S`, the Kb is 251 nM.
Still for that read-out and setting: for `Cc1ccc2c(c1)C=Cc1cc(C)ccc1C2c1cn(Cc2ccc(C(=O)N[C@@H](CC(=O)O)C(=O)O)o2)c(=O)[nH]c1=S` the value was 25.1 nM.
The same measure, in the same setting: for `Cc1ccc(C(c2ccc(C)cc2)c2cn([C@@H]3O[C@H](COP(=O)(O)OP(=O)(O)C(Cl)(Cl)P(=O)(O)O)[C@@H](O)[C@H]3O)c(=O)[nH]c2=S)cc1` the value was 15.8 nM.
Turning to `Cc1ccc2c(c1)C=Cc1cc(C)ccc1C2c1cn(Cc2ccc(C(=O)O)o2)c(=O)[nH]c1=S`, the Kb was 100 nM.
On to `O=C(O)c1ccc(Cn2cc(C3c4ccccc4C=Cc4ccccc43)c(=S)[nH]c2=O)o1`, for which the Kb was 1260 nM.
For `O=C(O)c1cccc(Cn2cc(C3c4ccccc4C=Cc4ccccc43)c(=S)[nH]c2=O)n1`, the Kb is 3980 nM.
As to `Cc1ccc2c(c1)C=Cc1cc(C)ccc1C2c1cn(Cc2ccc(C(=O)Nc3nc(CC(=O)N[C@@H](CC(=O)O)C(=O)O)cs3)o2)c(=O)[nH]c1=S`, the Kb was 63.1 nM.
For the molecule `O=c1[nH]c(=S)c(C(c2ccc(Cl)c(Cl)c2)c2ccc(Cl)c(Cl)c2)cn1[C@@H]1O[C@H](COP(=O)(O)OP(=O)(O)C(Cl)(Cl)P(=O)(O)O)[C@@H](O)[C@H]1O`, the Kb is 20 nM.
Turning to `O=c1[nH]c(=S)c(C2c3ccccc3C=Cc3ccccc32)cn1[C@@H]1O[C@H](CO)[C@@H](O)[C@H]1O`, the Kb is 20000 nM.

System in another series: not listed separately
The series can be described thus: Clearance in rat administered via iv. In kind it is ADME. As to conditions: in vivo.
On to `Cc1ccc2c(c1)C=Cc1cc(C)ccc1C2c1cn(Cc2ccc(C(=O)Nc3nnn[nH]3)o2)c(=O)[nH]c1=S`, for which the clearance was determined as 75 mL/min/kg.

System in a further series: not listed separately
The series can be described thus: Volume of distribution at steady state in rat administered via iv. In kind it is ADME. The following applies: in vivo, read-out: Vdss.
For `Cc1ccc2c(c1)C=Cc1cc(C)ccc1C2c1cn(Cc2ccc(C(=O)Nc3nnn[nH]3)o2)c(=O)[nH]c1=S`, the Vd was found to be 4.34 L/kg.

System in the next series: not listed separately
Nature of the series: Half life in rat administered via iv. The series is classed as ADME. The following applies: in vivo.
Consider `Cc1ccc2c(c1)C=Cc1cc(C)ccc1C2c1cn(Cc2ccc(C(=O)Nc3nnn[nH]3)o2)c(=O)[nH]c1=S`, for which the half-life is 2.12 h.

System in the next series: not listed separately
Nature of the series: Bioavailability in rat. In kind it is ADME, organism-based. The following applies: in vivo.
Molecule `Cc1ccc2c(c1)C=Cc1cc(C)ccc1C2c1cn(Cc2ccc(C(=O)Nc3nnn[nH]3)o2)c(=O)[nH]c1=S` returned a bioavailability of 0%.
